Tests used:
[1] = test system: human liver cytosol
Method: (§3) All incubations contained 3 mM magnesium chloride and NADPH-generating system in 0.5 mL of 50 mM potassium phosphate buffer, pH 7.4. Prior to the addition of drug, incubation mixtures were preincubated for 2 min at 37° C. […] The incubation mixtures were vortexed and centrifuged (˜10,000 g) at 4° C. for 10 min; supernatants were analyzed by HPLC coupled with radiometric detector. Heat activated S9 cofactor or mitochondria were used as control. For LC-MS analysis, supernatants were concentrated in SpeedVac for 3 hrs. Incubation volumes were 0.5 mL and the final concentration of the organic solvents in the incubation system was less than 1% (v/v).
(§4) The mobile phase consisted of 10 mM ammonium acetate adjusted to pH 7.0 with 1% ammonium hydroxide (A) and 100% methanol (B).

[2] = test system: cytosolic enzymes that convert Formula Ia to Formula Ia′; test: in vitro; settings: human
Method: as §3, §4

[3] = test system: cytosolic enzymes that convert Formula Ia to Formula Ia′; test: Inhibition of metabolism of 14C-Formula Ia to Formula Ia′ in human liver cytosol; settings: human; for inhibition at 120 min: pH 7.4
Method: as §3, §4

[4] = target: T1, AKR1C3 (Homo sapiens, UniProt P42330); test: Incubation with S9 fraction of recombinant human AKR1C3; assay type: in vitro ADME; set-up: made in house; settings: 20 μM 14C-radiolabeled compound; S9 2.5 mg protein/mL; NADPH
T1 sequence (P42330 1-323): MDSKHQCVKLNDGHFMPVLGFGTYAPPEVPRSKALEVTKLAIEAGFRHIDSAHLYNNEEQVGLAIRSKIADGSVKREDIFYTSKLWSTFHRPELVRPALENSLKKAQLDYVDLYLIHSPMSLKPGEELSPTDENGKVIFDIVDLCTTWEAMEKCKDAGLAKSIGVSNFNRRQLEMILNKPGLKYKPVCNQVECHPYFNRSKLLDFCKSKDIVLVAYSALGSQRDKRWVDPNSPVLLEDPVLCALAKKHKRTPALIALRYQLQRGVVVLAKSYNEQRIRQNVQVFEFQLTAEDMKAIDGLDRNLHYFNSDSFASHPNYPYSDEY
Method: (§1) Recombinant human AKRs (AKR1C2, AKR1C3 and AKR1C4) were grown, sonicated and centrifuged at ˜10,000 g to obtain S9 fractions. Incubations of ^14C-radiolabeled compound of Formula Ia, ^14C-radiolabeled compound of Formula Ib and ^14C-radiolabeled compound of Formula Ic (all at 20 μM) with S9-fractions from three recombinant human AKRs (2.5 mg protein/mL) were conducted as described above. [drawing 161]
(§2) The samples were analyzed by HPLC-coupled with radiometric detector and confirmed by LC-MS.

[5] = In vivo inhibition study of Formula Ia with AKR competitor diflunisal, plasma PK; settings: cynomolgus monkeys plasma; as a function of diflunisal dose 0, 62.5, 125, 250 mg
Method: An in vivo study was conducted in cynomolgus monkeys where 200 mg Formula Ia and 0 (control), 62.5, 125, or 250 mg diflunisal (Dolobid) was administered as illustrated below. All six monkeys were first dosed with Formula Ia with blood samples collected over a 12 hr period for plasma pharmacokinetics (PK) of Formula Ia prior to administration of diflunisal (dose-escalation). Four doses of diflunisal were subsequently administered every 12 hr with Formula Ia administered at each 4th diflunisal dose after which blood samples were collected for PK assessment of Formula Ia. The following chart summarizes the timing of Formula Ia and diflunisal administration.

[6] = target: T2, AKR1C2 (Homo sapiens, UniProt P52895); test: Incubation with S9 fraction of recombinant human AKR1C2; assay type: in vitro ADME; set-up: made in house; settings: 20 μM 14C-radiolabeled compound; S9 2.5 mg protein/mL; NADPH
T2 sequence (P52895 1-323): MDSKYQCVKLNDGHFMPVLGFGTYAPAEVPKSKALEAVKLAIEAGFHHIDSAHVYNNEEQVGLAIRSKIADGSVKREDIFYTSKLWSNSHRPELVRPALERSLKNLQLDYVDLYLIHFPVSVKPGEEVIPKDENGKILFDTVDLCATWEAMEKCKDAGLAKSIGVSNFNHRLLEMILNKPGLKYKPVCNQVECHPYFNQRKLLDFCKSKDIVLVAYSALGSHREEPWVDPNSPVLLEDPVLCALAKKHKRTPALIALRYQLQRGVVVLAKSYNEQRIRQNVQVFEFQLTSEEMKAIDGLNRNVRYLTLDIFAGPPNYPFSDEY
Method: as §1, §2

[7] = test system: cytosolic enzymes that convert Formula Ia to Formula Ia′; test: Inhibition of metabolism of 14C-Formula Ia to Formula Ia′ in human liver S9; assay type: in vitro ADME; settings: human, pH 7.4
[8] = pH 7.4, % Inhibition on Metabolite Formation of Compound Formula Ia
[9] = pH 7.4, % of Inhibition on Metabolite Formation of Compound Formula Ia
[10] = pH 7.4, inhibited formation of the compound of Formula Ia′

SMILES: Oc1ncnc2[nH]ncc12 [Allopurinol]
- inhibited formation of the compound of Formula Ia′ [1]: no inhibition
- inhibition at 2 h, 100 µM [2, 8]: 2%

SMILES: CC(C)=CCC/C(C)=C/COc1c2ccoc2cc2oc(=O)ccc12 [Bergamottin]
- inhibition at 2 h, 10 µM [2, 9]: 10%

SMILES: Cc1ccc(-c2cc(C(F)(F)F)nn2-c2ccc(S(N)(=O)=O)cc2)cc1 [Celecoxib]
- inhibition at 120 min, 2 μM [2, 8]: 8.42%
- inhibition at 120 min, 10 μM [2, 8]: 9.18%
- inhibition at 120 min, 50 μM [2, 8]: 20.5%
- inhibition at 2 h, 50 µM [2, 9]: 20.5%

SMILES: O=C(O)Cc1ccccc1Nc1c(Cl)cccc1Cl [Diclofenac]
- inhibition at 2 h, 7 µM [2, 9]: 57.3%

SMILES: CCc1cccc2c3c([nH]c12)C(CC)(CC(=O)O)OCC3 (stereo not shown) [Etodolac]
- inhibition at 2 h, 100 µM [2, 9]: 3.74%

SMILES: CC(C(=O)O)c1cccc(Oc2ccccc2)c1 (stereo not shown) [Fenoprofen]
- inhibition at 2 h, 80 µM [2, 9]: 14.2%

SMILES: O=C(O)c1ccccc1Nc1cccc(C(F)(F)F)c1 [Flufenamic acid, N-(3-trifluoromethylphenyl)anthranilic acid]
- inhibition at 2 h, 100 µM [2, 8]: 80.3%
- inhibition at 120 min [2, 10]: 80.3%

SMILES: CN1C(=O)CN=C(c2ccccc2F)c2cc([N+](=O)[O-])ccc21 [Flunitrazepam]
- inhibition at 120 min [3]: 51%

SMILES: CC(C(=O)O)c1ccc(-c2ccccc2)c(F)c1 (stereo not shown) [Flurbirofen]
- inhibition at 2 h, 50 µM [2, 9]: 31.6%

SMILES: CC(C)(C)NC(=O)N[C@H](C(=O)N1C[C@H]2[C@@H]([C@H]1C(=O)N[C@H](CC1CCC1)C(=O)C(N)=O)C2(C)C)C(C)(C)C [Formula Ib]
- metabolism by recombinant AKR1C3 [4]: preferentially metabolized
- AUC ratio (Formula Ia′ to AUC for the compound) [5]: decline

SMILES: CC(C)(C)NC(=O)N[C@H](C(=O)N1C[C@H]2[C@@H]([C@H]1C(=O)N[C@@H](CC1CCC1)C(=O)C(N)=O)C2(C)C)C(C)(C)C [Formula Ic, (1R,2S,5S)—N-[(1S)-3-amino-1-(cyclobutylmethyl)-2,3-dioxopropyl]-3-[(2S)-2-[[[(1,1-dimethylethyl)amino]carbonyl]amino]-3,3-dimethyl-1-oxobutyl]-6,6-dimethyl-3-azabicyclo[3.1.0]hexane-2-carboxamide]
- AUC ratio (Formula Ia′ to AUC for the compound) [5]: decline
- metabolism by recombinant AKR1C2 [6]: preferentially metabolized

SMILES: Cc1ccc(C)c(OCCCC(C)(C)C(=O)O)c1 [Gemfibrozil, 5-(2,5-dimethylphenoxy)-2,2-dimethylpentanoic acid]
- inhibition at 120 min, 100 µM [2, 8]: 27.4%
- inhibition at 120 min, 100 μM [2, 8]: 27.4%

SMILES: CC(C)Cc1ccc(C(C)C(=O)O)cc1 (stereo not shown) [Ibuprofen]
- inhibition at 120 min, 50 µM [2, 8]: 21.9%
- inhibition at 120 min, 50 μM [2, 8]: 31.3%
- inhibition at 120 min, 100 µM [2, 8]: 31.4%
- inhibition at 120 min, 100 μM [2, 8]: 33.4%
- inhibition at 120 min, 200 µM [2, 8]: 40.7%
- inhibition at 120 min, 200 μM [2, 8]: 43.3%
- inhibition at 120 min, 500 µM [2, 8]: 56.6%
- inhibition at 120 min, 1000 µM [2, 8]: 70%
- inhibition at 120 min, 1000 μM [2, 8]: 70%
- inhibition at 2 h, 200 µM [2, 9]: 43.3%
- inhibition at 120 min ([2]; pH 7.4, inhibited metabolism of 14C-radiolabeled compound of Formula Ia): 70%

SMILES: COc1ccc2c(c1)c(CC(=O)O)c(C)n2C(=O)c1ccc(Cl)cc1 [Indomethacin]
- inhibition at 120 min, 100 µM [2, 8]: 19%
- inhibition at 120 min, 100 μM [2, 8]: 19%
- inhibition at 2 h, 100 µM [2, 9]: 19%

SMILES: O=C(c1ccccc1)c1ccc2n1CCC2C(=O)O (stereo not shown) [Ketorolac]
- inhibition at 2 h, 4 µM [2, 9]: 0%

SMILES: Cc1cccc(Nc2ccccc2C(=O)O)c1C [Mefenamic acid]
- inhibition at 2 h, 1 µM [2, 9]: 14.6%
- inhibition at 2 h, 10 µM [2, 9]: 51.1%

SMILES: CC1=CC(=O)c2ccccc2C1=O [Menadione]
- inhibition at 2 h, 100 µM [2, 8]: 29.7%
- inhibition at 120 min, 100 µM [2, 10]: 30%
- inhibition at 120 min, 100 µM [7]: 18%

SMILES: Cc1ncc2n1-c1ccc(Cl)cc1C(c1ccccc1F)=NC2 [Midazolam]
- inhibition at 120 min [3]: 37%

SMILES: COc1ccc2cc(CCC(C)=O)ccc2c1 [Nabumetone]
- inhibition at 2 h, 200 µM [2, 9]: 42.4%

SMILES: O=C1C[C@@H](c2ccc(O)cc2)Oc2cc(O)cc(O)c21 [Naringenin]
- inhibition at 2 h, 500 µM ([3]; pooled human liver cytosol, pH 7.4, probe 14C-radiolabeled compound of Formula Ia (20 μM), % of Inhibition on Metabolite Formation of Compound Formula Ia, Table 5, human liver cytosol, 2 hr incubation, 500 μM): 86.7%

SMILES: O=C(O)CCc1nc(-c2ccccc2)c(-c2ccccc2)o1 [Oxaprozin]
- inhibition at 2 h, 500 µM [2, 9]: 76.1%

SMILES: C#CCN(C)Cc1ccccc1 [Pargyline]
- inhibited formation of the compound of Formula Ia′ [1]: no inhibition
- inhibition at 2 h, 1 µM [2, 8]: 0%

SMILES: O=C1OC(c2ccc(O)cc2)(c2ccc(O)cc2)c2ccccc21 [Phenolphthalein]
- inhibition at 120 min, 100 μM [2, 8]: 86.1%
- inhibition at 120 min [2, 10]: 86.1%

SMILES: O=c1c(O)c(-c2ccc(O)c(O)c2)oc2cc(O)cc(O)c12 [Quercetin]
- inhibition at 2 h, 100 µM [2, 8]: 33.4%
- inhibition at 120 min, 100 µM [2, 10]: 33.4%
- inhibition at 120 min, 100 µM [7]: 9.3%

SMILES: NC(=O)c1ncn([C@@H]2O[C@H](CO)[C@@H](O)[C@H]2O)n1 [Ribavirin]
- inhibition at 120 min, 10 μM [2, 8]: 1.76%
- inhibition at 120 min, 30 μM [2, 8]: 0%

SMILES: CC1=C(CC(=O)O)c2cc(F)ccc2/C1=C\c1ccc([S+](C)[O-])cc1 (stereo not shown) [Sulindac]
- inhibition at 2 h, 30 µM ([3]; pooled human liver cytosol, pH 7.4, probe 14C-radiolabeled compound of Formula Ia (20 μM), % of Inhibition on Metabolite Formation of Compound Formula Ia, Table 5, human liver cytosol, 2 hr incubation, 30 μM): 19%

SMILES: Cc1ccc(C(=O)c2ccc(CC(=O)O)n2C)cc1 [Tolmetin]
- inhibition at 2 h, 125 µM [2, 9]: 2.14%
